Laboratory results: ChEMBL document CHEMBL1129886, “Novel indole containing thiazolidinedione derivatives as potent euglycemic and hypolipidaemic agents” (1997)

Legend:
Type in all cases: functional
Mus musculus [1] = experiment: Percentage reduction in random blood sugar in mice measured on 0th and 9th day at a dose of 200 mg/kg peroral administration; conditions: route oral
Mus musculus [2] = experiment: Percentage reduction in random blood sugar in mice measured on 0th and 6th day at a dose of 200 mg/kg peroral administration; conditions: route oral
Mus musculus [3] = experiment: Percentage reduction in random blood sugar in mice measured on 0th and 3rd day at a dose of 200 mg/kg peroral administration; conditions: route oral
Mus musculus [4] = experiment: Percentage reduction in triglyceride measured on 0 and 9th day at a dose of 200 mg/kg
Mus musculus [5] = experiment: Percentage reduction in AUC determined Glucose tolerance test in 18 h fasted animals after feeding 3 g/kg of glucose at a dose of 200 mg/kg peroral administration; conditions: route oral
Mus musculus [6] = experiment: Percentage reduction in triglyceride measured on 0 and 9th day at a dose of 100 mg/kg

SMILES	Reduction in RBS (Mus musculus [1]) [%]	Reduction in RBS (Mus musculus [2]) [%]	Reduction in RBS (Mus musculus [3]) [%]	Reduction in TG (Mus musculus [4]) [%]	Reduction in AUC (Mus musculus [5]) [%]	Reduction in TG (Mus musculus [6]) [%]
O=C1NC(=O)/C(=C/c2ccc(OCCn3cnc4ccccc43)cc2)S1	33	31	22	76		
Cc1c(C)c2c(c(C)c1O)CCC(C)(COc1ccc(CC3SC(=O)NC3=O)cc1)O2 (stereo not given) [TROGLITAZONE]	24	16	14	50	20	
O=C1NC(=O)/C(=C/c2ccc(OCCn3c(C(=O)O)cc4ccccc43)cc2)S1	12	39	50	0		
O=C1NC(=O)/C(=C/c2ccc(OCCn3c4ccccc4c4ccccc43)cc2)S1	0	0	0			44
O=C1NC(=O)C(Cc2ccc(OCCn3c4ccccc4c4ccccc43)cc2)S1 (stereo not given)	0	0	0			21
O=C1NC(=O)/C(=C/c2ccc(OCCn3ccc4ccccc43)cc2)S1	33	40	27	37	15	
NC(Cc1cn(CCOc2ccc(/C=C3\SC(=O)NC3=O)cc2)c2ccccc12)C(=O)O (stereo not given)	0	29	0			64
O=C1NC(=O)C(Cc2ccc(OCCn3ccc4ccccc43)cc2)S1 (stereo not given)	74	48	64	77	55	
